Reference: US20080112992A1, “METHOD FOR CONTROLLING THE APPLICATION OF AN INSECTICIDE AND COMPOSITION THEREOF” (FLIT.S.A., priority 2001, published 2008)

Experiment: Colour change time after spraying on surfaces and drying in air
Assay type: physicochemical
Description: This composition of a pH of about 7.0 and of a yellow colour was applied by spraying to various kinds of surfaces, such as wood, painted wood, painted walls, ceramic tile, plastic (polyethylene), glass and stainless steel.
After about 40 minutes of exposure to air (including carbon dioxide), the composition was dried and the yellow colour disappeared.
Other levels of 4-nitrophenol were tested, and it was shown that with 0.05 wt % the yellow colour was somewhat faint but with a shorter colour changing time (about 25 min.), whereas with highest content, i.e. 0.5 resp. 1.0%, the colour change takes more time, i.e. 70 resp. 120 min.
Phenolphthalein was also tested at levels of 0.01 to 1.0 wt %, which all gave acceptable results and a colour change of about 40 min. The pH of the composition was initially adjusted to 9.4 using triethanolamine.

O=[N+]([O-])c1ccc(O)cc1 [4-nitrophenol]
colour changing time (0.05 wt % 4-nitrophenol in the composition, yellow colour somewhat faint): about 25 min. | colour change time (0.5 % 4-nitrophenol in the composition): 70 min | colour change time (1.0 % 4-nitrophenol in the composition): 120 min

O=C1OC(c2ccc(O)cc2)(c2ccc(O)cc2)c2ccccc21 [Phenolphthalein, phenolphthalein]
colour change time (phenolphthalein at 0.01 to 1.0 wt %, pH initially adjusted to 9.4 using triethanolamine): about 40 min.
